Laboratory results as given in patent publication US20080119571A1, “COMPOSITIONS AND METHODS TO ENHANCE REVERSE CHOLESTEROL TRANSPORT” (REDDY US THERAPEUTICS, INC., priority 2006, published 2008).
“Also recorded” adds a separate entry of the source.

Legend:
[1] = system: CAD; settings: 4081 asymptomatic middle-aged men with primary dyslipidemia, 5 years; cited from earlier work
[2] = system: SRB1; assay: SRB1 expression in HepG2 liver cells, real time PCR; type: cell-based, human; settings: HepG2, treated overnight
Protocol: (§1) The hepatoma cell line HepG2 are frequently used as in vitro models of liver cells. They are easy to culture and retain many properties of liver cells including expression of various genes involved in lipid metabolism.
(§2) This example illustrates the effect of compound A on genes associated with RCT in HepG2 cells.
(§3) Human HepG2 cells were cultured in DMEM containing 4500 mg glucose/L (ATCC) supplemented with 10% fetal bovine serum (FBS), penicillin (100 U/ml), and streptomycin (100 μg/ml) in a humidified atmosphere (5% CO2 in air) at 37° C. Cells were plated onto 12 well dishes and cultured in low serum (0.5% FBS) for experiments. Cells were treated with either vehicle (DMSO) or the test compound overnight and used for RNA isolation. Briefly, cells were lysed in 300 uL of lysis buffer (Qiagen) and placed in the TissueLyser (Qiagen) for 3 minutes. Samples were then processed as described by the RNeasy mini kit. RNA was then verified and quantified using the Agilent RNA 600 Nano Assay Labchip® system, and real time PCR was performed to quantitate gene expression using validated primer sets from SuperArray. The results were illustrated in FIGS. 8-9.

[3] = system: SR-B1; assay: SR-B1 expression in normal animals (rat liver), real time PCR; type: in vivo
Description: (§4) After 7 days of treatment RCT pathway genes were quantitated using real time PCR.

[4] = Plasma HDL levels in LDLr null mice, short term model; type: in vivo, mouse; settings: 7-day treatment
Description: Upregulation of ABCA1 and LCAT also should result in the formation of HDL particles. Following 7-day treatment, compound A increased HDL levels by greater than 50% (FIG. 4).
(§5) This example illustrates the effect of compound A on HDL and the ABCA1, SR-B1 and LCAT genes associated with RCT in LDL-receptor (LDLr) null mice in a short term model.
(§6) Eight-weeks-old LDLr mice (Jackson Laboratories, Bar Harbor, Me.), were used for this Example. Mice were distributed into two groups of 8 mice each. One group received vehicle containing carboxymethyl cellulose and Tween-80 (Sigma Chemical Co.), and the other group received a daily dose of compound A at 25 mg/kg.
(§7) After one week, plasma samples were collected and used for HDL determination. Mice were euthanized by CO2, and aorta and liver samples were collected for RNA isolation.

[5] = system: atherosclerotic lesions; assay: Atherosclerotic lesion area in LDLr null mice on Western Diet, long term model; type: in vivo, mouse; settings: high fat diet, 25 mg/kg daily, 16 weeks
Description: The atheroprotective effects of HDL to a large extent are attributed to its ability to remove cholesterol from macrophages present in atherosclerotic lesions to transport them to liver for excretion into bile. LDLr null mice develop atherosclerosis when fed a high fat diet. […] This example illustrates the effect of compound A on HDL and atherosclerosis in LDLr null mice in a long term model. Eight-weeks-old LDLr null mice (Jackson Laboratories, Bar Harbor, Me.), were used for these studies. Two groups of 8 mice each received a Western Diet (Research Diet incorporated, New Brunswick, N.J.; D12079B containing 0.1% cholesterol) for 2 weeks. Plasma samples were collected and used for lipid analysis. Mice were then distributed into two groups, one group received vehicle containing carboxymethyl cellulose and Tween-80 (Sigma Chemical Co.), and the other group received a daily dose of compound A at 25 mg/kg. Both groups were continued on the Western Diet for another 16 weeks. At the end of the 16 weeks, the mice were euthanized by CO2, and whole aortas (from aortic sinus to the beginning of iliac aorta) were isolated, and fixed in 10% paraformaldehyde. […] Images of whole aortas were obtained by microscopic digital camera, and the lesion area was determined by computer-assisted morphometry (Image Pro, Media cybermetics) as percentages of coverage in whole aorta. […]

[6] = system: SR-B1; assay: SR-B1 gene expression in LDL-r null mouse liver, real time PCR; type: in vivo
Protocol: (§8) To determine if a test compound was capable of upregulating these three RCT pathway genes, LDL-r mice were treated with vehicle alone (control) or vehicle containing a defined amount of a test compound termed, “compound A”.
(§9) LDL-r mice were chosen because they are prone to develop atherosclerosis. After 7 days of treatment, the three RCT pathway genes were quantitated using real time PCR. […] Thus, compound A coordinately up regulated the three RCT pathway genes, namely ABCA1, LCAT, and SRB1.
as §5
as §6, with “mg/kg. […]” for “mg/kg.”
(§10) Next, liver and aorta samples from vehicle and compound A treated mice were removed, flash frozen in liquid nitrogen and subsequently used for RNA isolation. […] RNA was then verified and quantified using the Agilent RNA 600 Nano Assay Labchip® system, and real time PCR was performed to quantitate the gene expression of SR-B1, ABCA1 and LCAT using validated primer sets from SuperArray. […]

[7] = system: ABCA1; assay: ABCA1 expression in HepG2 liver cells, real time PCR; type: cell-based, human; settings: HepG2, treated overnight
Protocol: as §1, §2, §3

[8] = system: ABCA1; assay: ABCA1 gene expression in LDL-r null mouse liver, real time PCR; type: in vivo
Protocol: as §8, §9, §5
Eight-weeks-old LDLr mice (Jackson Laboratories, Bar Harbor, Me.), were used for this Example. Mice were distributed into two groups of 8 mice each. […]
as §7, §10

[9] = system: LCAT; assay: LCAT gene expression in LDL-r null mouse liver, real time PCR; type: in vivo
Protocol: as §8, §9, §5
as §6, with “mg/kg. […]” for “mg/kg.”
as §10

[10] = system: ABCA1; assay: ABCA1 expression in normal animals (rat liver), real time PCR; type: in vivo
Description: as §4

[11] = normal animals, 10 and 25 mg/kg, 7 days of treatment
[12] = LDL-r mice, 10 and 25 mg/kg, 7 days of treatment, liver

| Structure (SMILES) | decrease in CAD [1] | SRB1 expression in liver cells [2] | SRB1 expression in rat liver [3] | increase in SR-B1 expression compared to vehicle treated animals [3, 11] | increase in HDL levels [4] | effect on atherosclerotic lesions [5] | SRB1 expression in LDL-r null mouse liver [6] | increase in SR-B1 expression compared to vehicle treated animals [6, 12] | ABCA1 expression in liver cells [7] | ABCA1 expression in liver cells ([7]; listed as compound of Formula I) | ABCA1 expression in LDL-r null mouse liver [8] | increase in ABCA1 expression compared to vehicle treated animals [8, 12] | LCAT expression in LDL-r null mouse liver [9] | increase in LCAT expression ([9]; LDL-r mice, 7 days of treatment, liver) | ABCA1 expression in rat liver [10] | increase in ABCA1 expression compared to vehicle treated animals [10, 11] |
| --- | --- | --- | --- | --- | --- | --- | --- | --- | --- | --- | --- | --- | --- | --- | --- | --- |
| Cc1ccc(C)c(OCCCC(C)(C)C(=O)O)c1 [gemfibrozil] | 34% | – | – | – | – | – | – | – | – | – | – | – | – | – | – | – |
| CC(=O)c1ccc(Nc2nc(-c3ccccc3)cc(N3CCC(O)CC3)n2)cc1 [compound A] | – | capable of increasing | induces | 2-4 fold | greater than 50% | inhibits atherosclerosis development; also recorded: significant decrease | induces | 2-2.5 fold | induces | capable of increasing | induces | 2-3 fold | induces | 30-90% | induces | 2-4 fold |
